Experimental data as given in patent publication US5693617A, “Inhibitors of the 26s proteolytic complex and the 20s proteasome contained therein” (ProScript, Inc., priority 1995, dated 1997).
Non-standard residues stand in square brackets, D forms with d. Residues, ends and D or L forms follow the SMILES beside them. ξ: configuration not given here. *: point of attachment. 1Nal = N[C@@H](Cc1cccc2ccccc12)C(=O)O; 2Nal = N[CH](Cc1ccc2ccccc2c1)C(=O)O; Cha = N[C@@H](CC1CCCCC1)C(=O)O; Ile(3ξ) = CCC(C)[C@H](N)C(=O)O; Nva = CCC[C@H](N)C(=O)O; Cbz = O=C(OCc1ccccc1)*; Boc = CC(C)(C)OC(=O)*; Bn = c1ccc(C*)cc1

Molecular target: T1, 20S proteasome (Oryctolagus cuniculus, UniProt G1T4Q9)
T1 sequence (G1T4Q9 60-263): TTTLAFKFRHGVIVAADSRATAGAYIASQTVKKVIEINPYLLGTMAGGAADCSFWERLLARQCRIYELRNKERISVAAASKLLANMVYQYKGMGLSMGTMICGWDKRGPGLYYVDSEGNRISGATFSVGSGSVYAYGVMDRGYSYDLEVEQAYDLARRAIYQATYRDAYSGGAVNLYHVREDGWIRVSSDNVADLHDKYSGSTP
T1 sequence (G1SU71 1-241 partner): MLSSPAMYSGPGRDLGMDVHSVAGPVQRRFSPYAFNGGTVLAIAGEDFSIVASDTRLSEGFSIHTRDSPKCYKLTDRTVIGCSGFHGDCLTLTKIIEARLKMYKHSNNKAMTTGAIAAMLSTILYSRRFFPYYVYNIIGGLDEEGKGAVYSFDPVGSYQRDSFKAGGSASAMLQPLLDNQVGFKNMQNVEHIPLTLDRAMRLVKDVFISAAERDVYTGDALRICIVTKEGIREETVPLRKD
Assay: Inhibition of the 20S proteasome peptidase activity (kinetic experiments)
Format: biochemical, Rabbit
Conditions: Rabbit muscle, SDS-activated, substrate Suc-LLVY-AMC; read-out: Ki 20S
Excerpt: Tables I-III summarize results from kinetic experiments that measured the inhibition of the 20S and 26S proteasomes, as well as cathepsin B and calpain, enzymes that may also be involved in muscle protein turnover. In these tables, Ki values are reported, which are dissociation constants for the equilibrium that is established when enzyme and inhibitor interact to form the enzyme:inhibitor complex.
The substances and assay conditions are briefly summarized in the footnotes to Table I. MG 101 and MG 102, also known as Calpain Inhibitor I and II, were purchased from Calbiochem as catalogue products.
(^a) Rabbit muscle. SDSactivated. Substrate: SucLLVYAMC.

Ki [nM] | Compound
74 | CC(C)C[C@H](NC(=O)OCc1ccccc1)C(=O)N[C@@H](CC(C)C)C(=O)N[C@H](C=O)CC1CCCCC1 [MG 129] (Cbz-Leu-Leu-[Cha]-aldehyde)
7 | CC(C)C[C@H](NC(=O)OCc1ccccc1)C(=O)N[C@@H](CC(C)C)C(=O)N[C@H](C=O)Cc1ccc(O)cc1 [MG 131] (Cbz-Leu-Leu-Tyr-aldehyde)
4 | CC(C)C[C@@H](C=O)NC(=O)[C@H](CC(C)C)NC(=O)[C@H](CC(C)C)NC(=O)OCc1ccccc1 [MG 132] (Cbz-Leu-Leu-Leu-aldehyde)
104 | CCC(C)[C@@H](C=O)NC(=O)[C@H](CC(C)C)NC(=O)[C@H](CC(C)C)NC(=O)OCc1ccccc1 (stereo partly drawn) [MG 134] (Cbz-Leu-Leu-[Ile(3ξ)]-aldehyde)
0.2 | CCC[C@@H](C=O)NC(=O)[C@H](CC(C)C)NC(=O)[C@H](Cc1cccc2ccccc12)NC(=O)OCc1ccccc1 [MG 142] (Cbz-[1Nal]-Leu-[Nva]-aldehyde)
285 | CC(C)C[C@H](NC(=O)OCc1ccccc1)C(=O)N[C@@H](CC(C)C)C(=O)N[C@H](C=O)Cc1ccc(OCc2ccccc2)cc1 [MG 153] (Cbz-Leu-Leu-Tyr(Bn)-aldehyde)
47 | CC(C)C[C@@H](C=O)NC(=O)[C@H](CC(C)C)NC(=O)[C@H](CC(C)C)NC(=O)OC(C)(C)C [MG 155] (Boc-Leu-Leu-Leu-aldehyde)
24 | CC(C)CC(C=O)NC(=O)C(Cc1ccc2ccccc2c1)NC(=O)OCc1ccccc1 (stereo not drawn) [MG 279, Z-Nal-Leu-H] (Cbz-[2Nal]-Leu-aldehyde; configuration not given here)

Tested on: chymotrypsin-like activity of the proteasome
Assay: not given
Conditions: Orlowski 1990; cited from earlier work

Compound | Inhibition of the chymotrypsin-like activity of the proteasome
CC(C)C[C@@H](C=O)NC(=O)CNC(=O)CNC(=O)OCc1ccccc1 [Z-Gly-Gly-Leu-H] (Cbz-Gly-Gly-Leu-aldehyde) | inhibits the chymotrypsin-like activity of the proteasome

Same assay, conditions: Vinitsky et al. 1992; slow binding inhibitors; cited from earlier work

Compound | Ki [nM]
CSCC[C@@H](C=O)NC(=O)[C@H](CC(C)C)NC(=O)[C@H](CC(C)C)NC(C)=O [Ac-LLM-H, N-acetyl-Leu-Leu-methioninal] (Ac-Leu-Leu-Met-aldehyde) | 33000
CC(C)C[C@H](NC(=O)OCc1ccccc1)C(=O)N[C@@H](CC(C)C)C(=O)N[C@H](C=O)Cc1ccccc1 [MG 110, Z-Leu-Leu-Phe-H] (Cbz-Leu-Leu-Phe-aldehyde) | 460
CCOC(=O)C(=O)[C@H](Cc1ccccc1)NC(=O)[C@H](CC(C)C)NC(=O)[C@H](CC(C)C)NC(=O)OCc1ccccc1 [Z-Leu-Leu-Phe-COOEt] | 53000

Tested on: PC12 cells
Assay: not given
Conditions: Tsubuki et al. 1993; cited from earlier work

Compound | Optimal concentration for initiating neurite outgrowth [nM]
CC(C)C[C@@H](C=O)NC(=O)[C@H](CC(C)C)NC(=O)[C@H](CC(C)C)NC(=O)OCc1ccccc1 [Z-Leu-Leu-Leu-H, Z-L-Leucine-L-Leucine-L-Leucinal] (Cbz-Leu-Leu-Leu-aldehyde) | 30
